From US6358885B1, “Substituted phenylheterocyclic herbicides” (Mississippi State University, priority 1992, dated 2002)

How the values were obtained:
Assay in all cases: Test G preemergence/postemergence greenhouse plant response rating 0 to 100
[1] = system: alfalfa; type: in vivo, Medicago ativa; conditions: 0 to 100 scale
Excerpt: (§1) Seeds, rhizomes, or plant parts of alfalfa (Medicago ativa), annual bluegrass (Poa annua), bermudagrass (Cynodon dactylon), broadleaf signalgrass (Brachiaria plantaginea), common purslane (Portulaca oleracea), common ragweed (Ambrosia elatior), […] (Paspalum dilatatum), goosegrass (Eleusine indica), guineagrass (Panicum maximum), […] exaltata), johnsongrass (Sorghum halepense), large crabgrass (Digitaria sanguinalis), peanut (Arachis hypoagaea), pitted morningglory (Ipomoea lacunosa), purple nutsedge (Cyperus rotundus), sandbur (Cenchrus echinatus), smooth crabgrass (Digitaria ischaemum) and yellow nutsedge (Cyperus esculentus) were planted into greenhouse pots containing greenhouse planting medium. Each pot contained only one plant species. The test compound was dissolved in a non-phytotoxic solvent and applied preemergence and/or postemergence to the plants. Preemergence applications were made within one day of planting the seeds or plant parts. Postemergence applications were applied when the plants were in the two to four leaf stage (three to twenty cm). Test chemicals were dissolved in a non-phytotoxic solvent and applied preemergence and postemergence to the plants. Untreated control plants and treated plants were placed in the greenhouse and visually evaluated for injury at 13 to 21 days after herbicide application. […] A dash (-) response indicates no test result.

[2] = system: annual bluegrass; type: in vivo, Poa annua; conditions: 0 to 100 scale
Excerpt: as §1

[3] = system: bermudagrass; type: in vivo, Cynodon dactylon; conditions: 0 to 100 scale
Excerpt: as §1

[4] = system: broadleaf signalgrass; type: in vivo, Brachiaria plantaginea; conditions: 0 to 100 scale
Excerpt: as §1

[5] = system: common purslane; type: in vivo, Portulaca oleracea; conditions: 0 to 100 scale
Excerpt: as §1

[6] = system: common ragweed; type: in vivo, Ambrosia elatior; conditions: 0 to 100 scale
Excerpt: as §1

[7] = system: dallisgrass; type: in vivo, Paspalum dilatatum; conditions: 0 to 100 scale
Excerpt: as §1

[8] = system: goosegrass; type: in vivo, Eleusine indica; conditions: 0 to 100 scale
Excerpt: as §1

[9] = system: guineagrass; type: in vivo, Panicum maximum; conditions: 0 to 100 scale
Excerpt: as §1

[10] = system: itchgrass; type: in vivo, Rottboellia exaltata; conditions: 0 to 100 scale
Excerpt: as §1

[11] = system: johnsongrass; type: in vivo, Sorghum halepense; conditions: 0 to 100 scale
Excerpt: as §1

[12] = system: large crabgrass; type: in vivo, Digitaria sanguinalis; conditions: 0 to 100 scale
Excerpt: as §1

[13] = system: peanut; type: in vivo, Arachis hypoagaea; conditions: 0 to 100 scale
Excerpt: as §1

[14] = system: pitted morningglory; type: in vivo, Ipomoea lacunosa; conditions: 0 to 100 scale
Excerpt: as §1

[15] = system: purple nutsedge; type: in vivo, Cyperus rotundus; conditions: Rate 125 g/ha, 0 to 100 scale
Excerpt: as §1

[16] = system: sandbur; type: in vivo, Cenchrus echinatus; conditions: 0 to 100 scale
Excerpt: as §1

[17] = system: yellow nutsedge; type: in vivo, Cyperus esculentus; conditions: Rate 125 g/ha, 0 to 100 scale
Excerpt: as §1

Fc1cc(Cl)c(OC2CCCC2)cc1-c1nn2c(c1Cl)CCCC2 [Compound 24]
Plant response rating, Alfalfa Var. ([1]; POSTEMERGENCE, Rate 125 g/ha): 0 | Plant response rating, Alfalfa Var. ([1]; POSTEMERGENCE, Rate 250 g/ha): 20 | Plant response rating, Alfalfa Var. ([1]; PREEMERGENCE, Rate 125 g/ha): 0 | Plant response rating, Alfalfa Var. ([1]; PREEMERGENCE, Rate 250 g/ha): 0 | Plant response rating, Ann Bluegrass ([2]; POSTEMERGENCE, Rate 125 g/ha): 0 | Plant response rating, Ann Bluegrass ([2]; POSTEMERGENCE, Rate 250 g/ha): 0 | Plant response rating, Ann Bluegrass ([2]; PREEMERGENCE, Rate 125 g/ha): 30 | Plant response rating, Ann Bluegrass ([2]; PREEMERGENCE, Rate 250 g/ha): 0 | Plant response rating, Bermudagrass ([3]; POSTEMERGENCE, Rate 125 g/ha): 0 | Plant response rating, Bermudagrass ([3]; POSTEMERGENCE, Rate 250 g/ha): 0 | Plant response rating, Bermudagrass ([3]; PREEMERGENCE, Rate 125 g/ha): 30 | Plant response rating, Bermudagrass ([3]; PREEMERGENCE, Rate 250 g/ha): 0 | Plant response rating, Brdlf Sgnlgrass ([4]; POSTEMERGENCE, Rate 125 g/ha): 0 | Plant response rating, Brdlf Sgnlgrass ([4]; POSTEMERGENCE, Rate 250 g/ha): 0 | Plant response rating, Brdlf Sgnlgrass ([4]; PREEMERGENCE, Rate 125 g/ha): 100 | Plant response rating, Brdlf Sgnlgrass ([4]; PREEMERGENCE, Rate 250 g/ha): 0 | Plant response rating, Cmn Purslane ([5]; POSTEMERGENCE, Rate 125 g/ha): 80 | Plant response rating, Cmn Purslane ([5]; POSTEMERGENCE, Rate 250 g/ha): 70 | Plant response rating, Cmn Purslane ([5]; PREEMERGENCE, Rate 125 g/ha): 0 | Plant response rating, Cmn Purslane ([5]; PREEMERGENCE, Rate 250 g/ha): 0 | Plant response rating, Cmn Ragweed ([6]; POSTEMERGENCE, Rate 125 g/ha): 50 | Plant response rating, Cmn Ragweed ([6]; POSTEMERGENCE, Rate 250 g/ha): 0 | Plant response rating, Cmn Ragweed ([6]; PREEMERGENCE, Rate 125 g/ha): 40 | Plant response rating, Cmn Ragweed ([6]; PREEMERGENCE, Rate 250 g/ha): 0 | Plant response rating, Dallisgrass ([7]; POSTEMERGENCE, Rate 125 g/ha): 0 | Plant response rating, Dallisgrass ([7]; POSTEMERGENCE, Rate 250 g/ha): 0 | Plant response rating, Dallisgrass ([7]; PREEMERGENCE, Rate 125 g/ha): 20 | Plant response rating, Dallisgrass ([7]; PREEMERGENCE, Rate 250 g/ha): 30 | Plant response rating, Goosegrass ([8]; POSTEMERGENCE, Rate 125 g/ha): 0 | Plant response rating, Goosegrass ([8]; POSTEMERGENCE, Rate 250 g/ha): 0 | Plant response rating, Goosegrass ([8]; PREEMERGENCE, Rate 125 g/ha): 90 | Plant response rating, Goosegrass ([8]; PREEMERGENCE, Rate 250 g/ha): 40 | Plant response rating, Guineagrass ([9]; POSTEMERGENCE, Rate 125 g/ha): 0 | Plant response rating, Guineagrass ([9]; POSTEMERGENCE, Rate 250 g/ha): 0 | Plant response rating, Guineagrass ([9]; PREEMERGENCE, Rate 125 g/ha): 0 | Plant response rating, Guineagrass ([9]; PREEMERGENCE, Rate 250 g/ha): 0 | Plant response rating, Itchgrass ([10]; POSTEMERGENCE, Rate 125 g/ha): 0 | Plant response rating, Itchgrass ([10]; POSTEMERGENCE, Rate 250 g/ha): 0 | Plant response rating, Itchgrass ([10]; PREEMERGENCE, Rate 125 g/ha): 100 | Plant response rating, Itchgrass ([10]; PREEMERGENCE, Rate 250 g/ha): 20 | Plant response rating, Johnsongrass ([11]; POSTEMERGENCE, Rate 125 g/ha): 0 | Plant response rating, Johnsongrass ([11]; POSTEMERGENCE, Rate 250 g/ha): 0 | Plant response rating, Johnsongrass ([11]; PREEMERGENCE, Rate 125 g/ha): 0 | Plant response rating, Johnsongrass ([11]; PREEMERGENCE, Rate 250 g/ha): 0 | Plant response rating, Large Crabgrass ([12]; POSTEMERGENCE, Rate 125 g/ha): 0 | Plant response rating, Large Crabgrass ([12]; POSTEMERGENCE, Rate 250 g/ha): 0 | Plant response rating, Large Crabgrass ([12]; PREEMERGENCE, Rate 125 g/ha): 80 | Plant response rating, Large Crabgrass ([12]; PREEMERGENCE, Rate 250 g/ha): 90 | Plant response rating, Peanuts ([13]; POSTEMERGENCE, Rate 125 g/ha): 0 | Plant response rating, Peanuts ([13]; POSTEMERGENCE, Rate 250 g/ha): 0 | Plant response rating, Peanuts ([13]; PREEMERGENCE, Rate 125 g/ha): 0 | Plant response rating, Peanuts ([13]; PREEMERGENCE, Rate 250 g/ha): 0 | Plant response rating, Pit Morninglory ([14]; POSTEMERGENCE, Rate 125 g/ha): 0 | Plant response rating, Pit Morninglory ([14]; POSTEMERGENCE, Rate 250 g/ha): 30 | Plant response rating, Pit Morninglory ([14]; PREEMERGENCE, Rate 125 g/ha): 0 | Plant response rating, Pit Morninglory ([14]; PREEMERGENCE, Rate 250 g/ha): 50 | Plant response rating, Purple Nutsedge ([15]; POSTEMERGENCE): 0 | Plant response rating, Purple Nutsedge ([15]; PREEMERGENCE): 0 | Plant response rating, S. Sandbur ([16]; POSTEMERGENCE, Rate 125 g/ha): 0 | Plant response rating, S. Sandbur ([16]; POSTEMERGENCE, Rate 250 g/ha): 0 | Plant response rating, S. Sandbur ([16]; PREEMERGENCE, Rate 125 g/ha): 40 | Plant response rating, S. Sandbur ([16]; PREEMERGENCE, Rate 250 g/ha): 0 | Plant response rating, Yellow Nutsedge ([17]; POSTEMERGENCE): 0 | Plant response rating, Yellow Nutsedge ([17]; PREEMERGENCE): 0
